This note sets out measurements from US10426736B2, “Delivering functional nucleic acids to mammalian cells via bacterially-derived, intact minicells” (EnGenelC Molecular Delivery Pty. Ltd., priority 2004, dated 2019).

In series [1] the test system is Human colon cancer cell line Caco-2. Nature of the series: MTT cell proliferation assay, reversal of drug resistance in-vitro. The settings on record: single treatment; 72 hrs; free drugs 25 μM; MTT read at 490 nm.
Procedure: Caco-2 cells were seeded at 3×10^6 cells/flask in Minimum Essential Medium with 10% cosmic calf serum and incubated for 3 hours at 37° C., 5% CO2.
The cells were treated with (a) ^EGFRminicellsshRNA-MDR-1, and (b) ^EGFRminicellsshRNA-nonsense. […] Minicells were added at a concentration of 10^10 per flask and all flasks were incubated for 72 hrs. The cells from each treatment were trypsinised and seeded at 1×10^4 cells/ml/well in 24-well plates and were incubated for 3 hrs at 37° C., 5% CO2. The control untreated cells were then incubated with (6 wells/treatment) (a) free irinotecan (25 μM), (b) free 5-FU (25 μM), (c) ^EGFRminicellsIrino, and (d) ^EGFRminicells5-FU.
The ^EGFRminicellsshRNA-MDR-1 treated Caco-2 cells were incubated with (6 wells/treatment) (a) ^CMV minicells5-FU (non-specifically targeted since the bispecific antibody is targeted to a surface protein on cytomegalovirus), (b) free irinotecan, (c) free 5-FU EGFR, (d) ^EGFRminicellsIrino, and (e) ^EGFRminicells5-FU. […]
All cells were incubated for a further 72 hrs followed by the colorimetric MTT cell proliferation assay (Cory et al., 1991) using the CellTiter 96 AQueous One Solution Cell Proliferation Assay (Promega Corp., Madison, Wis., USA), according to the manufacturer's instructions. The colorimetric measurements were read at 490 nm.
Series [2] relates to Caco-2 cell xenograft. Kind of series: Dosing schedule time-course, Caco-2 xenograft, irinotecan (Example 6). It counts as in vivo, nude mice. As to conditions: free drug, ~2.4×10^5 ng/dose, intravenous. As to the method: Allowing sufficient time for efficient delivery of shRNA to the tumor cells before the receptor-targeted, drug-packaged minicells are administered improves the results. A time-course experiment was performed, wherein ^EGFRminicellsshRNA-MDR-1 were administered intravenously in nude mice carrying Caco-2 cell xenograft. In separate groups (n=11 mice per group), mice were given ^EGFRminicellsIrino either at 96 hr (G3), 120 hr (G4) or 144 hr (G5) after the ^EGFRminicellsshRNA-MDR-1 treatment. G1 and G2 were tumor only and free irinotecan (˜2.4×10^5 ng/dose) controls. The minicells were administered at 5×10^8 per dose and each dose carried ˜80 ng of irinotecan packaged in minicells, which is a 3,000-fold lower dose than that administered as free drug.

The test system of series [3] is Caco-2 cell xenograft. Nature of the series: Dosing schedule time-course, Caco-2 xenograft, 5-FU (Example 7). The class given is in vivo, nude mice. The settings on record: free drug, 1×10^6 ng/dose, intravenous. As to the method: The experiment described in example 6 was repeated with the same controls and experimental groups except that G2 received free 5-FU (1×10^6 ng/dose) and in G3, G4 and G5, the second treatment was carried out with ^EGFRminicells5-FU. Minicells were administered at 1×10^9 per dose and each dose carried ˜80 ng 5-FU, i.e., ˜12,500-fold lower than free drug administration in G2 mice.

Series [4] deals with human breast adenocarcinoma cell line, MDA-MB-468. Kind of series: Doxorubicin sensitivity of MDA-MB-468 cell line. The settings on record: parental MDA-MB-468. The class given is cell-based.

On to `CCc1c2c(nc3ccc(OC(=O)N4CCC(N5CCCCC5)CC4)cc13)-c1cc3c(c(=O)n1C2)COC(=O)[C@]3(O)CC` [irinotecan], for which the “resistance of Caco-2 cells to treatment (cell viability, FIG. 1)” value in series [1] is on record as “highly resistant”. Besides, the “effect on tumor growth (FIG. 5)” value in series [2] is given as “no effect”.
As for `O=c1[nH]cc(F)c(=O)[nH]1` [5-FU, 5-fluorouracil], the “effect on tumor growth (FIG. 6)” value in series [3] was “no effect”.
In the case of `COc1cccc2c1C(=O)c1c(O)c3c(c(O)c1C2=O)C[C@@](O)(C(=O)CO)C[C@@H]3O[C@H]1C[C@H](N)[C@H](O)[C@H](C)O1` [doxorubicin], the “sensitivity of cell line to drug” value in series [4] is “highly sensitive”.
